Data published in patent publication US11230526B1, “Cylcoalkenyl derivatives useful as agonists of the GPR120 and/or GPR40 receptors” (Janssen Pharmaceutica NV, priority 2018, dated 2022).

Legend:
[1] = biological target: T1, human GPR40 (Homo sapiens, UniProt O14842); assay: GPR40 calcium flux assay, human GPR40; format: cell-based; conditions: HEK293 cells stably expressing GPR40; table does not say human or rat
T1 construct: expressed in transfected cells
In short: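 Cells preincubated 1 h at 37° C. in HBSS, 20 mM HEPES, 0.1% BSA, then Fluo 8 calcium dye 30 min at 37° C. and 15 min at room temperature.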

[2] = biological target: T2, Human GPR120 short form (Homo sapiens, UniProt Q5NUL3); assay: Human GPR120 calcium flux assay, Procedure Calcium B (4200 cells/well); format: cell-based
T2 construct: expressed in transfected cells
T2 sequence (Q5NUL3 1-361): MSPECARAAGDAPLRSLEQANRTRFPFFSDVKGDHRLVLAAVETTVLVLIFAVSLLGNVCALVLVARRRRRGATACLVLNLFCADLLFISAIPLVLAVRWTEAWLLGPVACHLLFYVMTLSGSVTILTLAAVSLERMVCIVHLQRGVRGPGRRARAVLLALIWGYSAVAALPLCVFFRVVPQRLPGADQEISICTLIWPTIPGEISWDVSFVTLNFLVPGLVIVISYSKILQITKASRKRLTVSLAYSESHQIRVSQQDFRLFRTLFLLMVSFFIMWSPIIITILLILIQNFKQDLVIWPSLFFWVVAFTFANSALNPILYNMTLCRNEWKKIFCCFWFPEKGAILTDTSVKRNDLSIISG
In short: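 Agonist EC50 came from a four-parameter fit of RFU (Fmax−Fmin) read over 300 s on FLIPR. Cells were HEK293 stably transfected with human GPR120 (NM_001195755.1) at 4200 per well, serum-starved 1 h and loaded with Fluo-4 NW dye with probenecid before ligand addition.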

T1 sequence (O14842 whole entry): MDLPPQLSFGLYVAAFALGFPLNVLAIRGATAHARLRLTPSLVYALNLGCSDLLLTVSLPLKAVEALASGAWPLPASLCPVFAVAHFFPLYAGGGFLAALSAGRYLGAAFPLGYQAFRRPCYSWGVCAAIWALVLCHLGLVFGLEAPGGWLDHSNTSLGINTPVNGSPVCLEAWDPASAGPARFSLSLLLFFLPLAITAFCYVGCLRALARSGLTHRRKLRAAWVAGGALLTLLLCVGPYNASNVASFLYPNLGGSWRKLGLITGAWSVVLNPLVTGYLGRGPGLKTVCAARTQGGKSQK

| EC50 [1] | EC50 [2] | SMILES |
| --- | --- | --- |
| > 5000 nM | 1870 nM | O=C(O)CCc1ccc(OCC2=C(C3=CCCCC3)CCC2)cc1 [Compound 230, 3-[4-[[2-(cyclohexen-1-yl)cyclopenten-1-yl]methoxy]phenyl]Propanoic Acid] |
| 3550 nM | 166 nM | Cc1c(CCC(=O)O)ccc(OCC2=C(c3ccc(Cl)cc3)CCC(F)(F)CC2)c1C [Compound 616, 3-[4-[[2-(4-chlorophenyl)-5,5-difluoro-cyclohepten-1-yl]methoxy]-2,3-dimethyl-phenyl]Propanoic Acid] |
| 248 nM | 245 nM | Cc1cc(OCC2=C(C3CCCC3)CCC2)c(F)cc1CCC(=O)O [Compound 424, 3-[4-[(2-cyclopentylcyclopenten-1-yl)methoxy]-5-fluoro-2-methyl-phenyl]Propanoic Acid] |
| > 5000 nM | > 5000 nM | Cc1c(CCC(=O)O)ccc(OCC2=C(c3ccc(Cl)cc3)C(C(C)C)CCC2)c1C (stereo not drawn) [Compound 523, 3-[4-[[2-(4-chlorophenyl)-3-isopropyl-cyclohexen-1-yl]methoxy]-2,3-dimethyl-phenyl]Propanoic Acid] |
| 2380 nM | 1450 nM | Cc1cc(OCC2=C(C3CC3)CCC2)c(F)cc1CCC(=O)O [Compound 373, 3-[4-[(2-cyclopropylcyclopenten-1-yl)methoxy]-5-fluoro-2-methyl-phenyl]Propanoic Acid] |
| > 5000 nM | > 5000 nM | Cc1c(CCC(=O)O)ccc(OCC2=C(c3ccc(Cl)cc3)C(C(C)C)CC2)c1C (stereo not drawn) [Compound 46, 3-[4-[[2-(4-chlorophenyl)-3-isopropyl-cyclopenten-1-yl]methoxy]-2,3-dimethyl-phenyl]Propanoic Acid] |
| 1140 nM | 1490 nM | O=C(O)CCc1ccc(OCC2=C(C(=O)c3ccccc3)CCC2)cc1C(F)(F)F [Compound 403, 3-[4-[(2-benzoylcyclopenten-1-yl)methoxy]-2-(trifluoromethyl)phenyl]Propanoic Acid] |
| > 5000 nM | 185 nM | Cc1cc(CCC(=O)O)ccc1OCC1=C(Cc2ccccc2)CCC1 [Compound 315, 3-[4-[(2-benzylcyclopenten-1-yl)methoxy]-3-methyl-phenyl]Propanoic Acid] |
| 215 nM | 518 nM | O=C(O)CCc1ccc(OCC2=C(c3ccc(Cl)c(F)c3)CCC2)cc1Cl [Compound 274, 3-[2-chloro-4-[[2-(4-chloro-3-fluoro-phenyl)cyclopenten-1-yl]methoxy]phenyl]Propanoic Acid] |
| > 10000 nM | > 5000 nM | O=C(O)CCc1c(F)cc(OCC2=C(C3CCCC3)CCC2)cc1C(F)(F)F [Compound 439, 3-[4-[(2-cyclopentylcyclopenten-1-yl)methoxy]-2-fluoro-6-(trifluoromethyl)phenyl]Propanoic Acid] |
| > 5000 nM | 1050 nM | Cc1cc(CCC(=O)O)cc(Cl)c1OCC1=C(c2ccc(F)cc2)CC(F)(F)C1 [Compound 229, 3-[3-chloro-4-[[4,4-difluoro-2-(4-fluorophenyl)cyclopenten-1-yl]methoxy]-5-methyl-phenyl]Propanoic Acid] |
| 103 nM | 215 nM | O=C(O)CCc1ccc(OCC2=C(C3CCCC3)CCC(F)(F)CC2)cc1C(F)(F)F [Compound 617, 3-[4-[(2-cyclopentyl-5,5-difluoro-cyclohepten-1-yl)methoxy]-2-(trifluoromethyl)phenyl]Propanoic Acid] |
| > 5000 nM | 594 nM | Cc1c(CCC(=O)O)cc(F)c(OCC2=C(c3ccc(F)cc3)CCC2)c1C [Compound 254, 3-[5-fluoro-4-[[2-(4-fluorophenyl)cyclopenten-1-yl]methoxy]-2,3-dimethyl-phenyl]Propanoic Acid] |
| 952 nM | 160 nM | [2H]C([2H])([2H])c1ccc(C2=C(COc3ccc(CCC(=O)O)c(Cl)c3)CCC2)cc1 [Compound 302-D, 3-[2-chloro-4-[[2-[4-(trideuteriomethyl)phenyl]cyclopenten-1-yl]methoxy]phenyl]Propanoic Acid] |
| 92 nM | 1700 nM | O=C(O)CCc1ccc(OCC2=C(C3CCCCC3)CCC2)cc1C(F)(F)F [Compound 386, 3-[4-[(2-cyclohexylcyclopenten-1-yl)methoxy]-2-(trifluoromethyl)phenyl]Propanoic Acid] |
| 458 nM | 828 nM | O=C(O)CCc1ccc(OCC2=C(C3CCCC3)CCC2)cc1C(F)(F)C(F)(F)F [Compound 446, 3-[4-[(2-cyclopentylcyclopenten-1-yl)methoxy]-2-(1,1,2,2,2-pentafluoroethyl)phenyl]Propanoic Acid] |
| 428 nM | 562 nM | CC1CCC(c2ccc(Cl)cc2)=C1COc1ccc(CCC(=O)O)c(C(F)(F)F)c1 (stereo not drawn) [Compound 336, 3-[4-[[2-(4-chlorophenyl)-5-methyl-cyclopenten-1-yl]methoxy]-2-(trifluoromethyl)phenyl]Propanoic Acid] |

| EC50 [1] | EC50 [2] | SMILES |
| --- | --- | --- |
| 516 nM | 288 nM | Cc1ccc(C2=C(COc3ccc(CCC(=O)O)c(C(F)(F)F)c3)CCC2)cc1 [Compound 307, 3-[4-[[2-(p-tolyl)cyclopenten-1-yl]methoxy]-2-(trifluoromethyl)phenyl]Propanoic Acid] |
| 138 nM | 3340 nM | O=C(O)CCc1ccc(OCC2=C(Cc3ccccc3F)CCC2)cc1Cl [Compound 438, 3-[2-chloro-4-[[2-[(2-fluorophenyl)methyl]cyclopenten-1-yl]methoxy]phenyl]Propanoic Acid] |
| 402 nM | 612 nM | Cc1cccc(C2=C(COc3ccc(CCC(=O)O)c(C(F)(F)F)c3)CCC2)c1 [Compound 312, 3-[4-[[2-(m-tolyl)cyclopenten-1-yl]methoxy]-2-(trifluoromethyl)phenyl]Propanoic Acid] |
| 234 nM | 1650 nM | O=C(O)CCc1ccc(OCC2=C(c3ccccc3Cl)CCC2)cc1Cl [Compound 295, 3-[2-chloro-4-[[2-(2-chlorophenyl)cyclopenten-1-yl]methoxy]phenyl]Propanoic Acid] |
| > 10000 nM | > 5000 nM | O=C(O)CCc1cc(F)c(OCC2=C(C3CCCC3)CCC2)cc1C(F)(F)F [Compound 433, 3-[4-[(2-cyclopentylcyclopenten-1-yl)methoxy]-5-fluoro-2-(trifluoromethyl)phenyl]Propanoic Acid] |
| > 10000 nM | 172 nM | Cc1c(CCC(=O)O)ccc(OCC2=C(c3ccc(Cl)cc3)CCCCC2)c1C [Compound 615, 3-[4-[[2-(4-chlorophenyl)cyclohepten-1-yl]methoxy]-2,3-dimethyl-phenyl]Propanoic Acid] |
| 1590 nM | 1630 nM | Cc1cccc(C2=C(COc3ccc(CCC(=O)O)c(Cl)c3)CCC2)c1 [Compound 298, 3-[2-chloro-4-[[2-(m-tolyl)cyclopenten-1-yl]methoxy]phenyl]Propanoic Acid] |
| > 5000 nM | 776 nM | Cc1ccc(C2=C(COc3ccc(CCC(=O)O)cc3)CCC2)c(O)c1 [Compound 213] |
| 1920 nM | 1140 nM | CCCCC1=C(COc2ccc(CCC(=O)O)cc2)CCCC1 [Compound 588, 3-[4-[(2-butylcyclohexen-1-yl)methoxy]phenyl]Propanoic Acid] |
| 67 nM | 3020 nM | Cc1ccc(CC2=C(COc3ccc(CCC(=O)O)c(C(F)(F)F)c3)CCC2)cc1 [Compound 345, 3-[4-[[2-(p-tolylmethyl)cyclopenten-1-yl]methoxy]-2-(trifluoromethyl)phenyl]Propanoic Acid] |
| 2370 nM | 124 nM | [2H]C([2H])([2H])c1ccc(C2=C(COc3cc(C)c(CCC(=O)O)cc3F)CCC2)cc1 [Compound 303-D, 3-[5-fluoro-2-methyl-4-[[2-[4-(trideuteriomethyl)phenyl]cyclopenten-1-yl]methoxy]phenyl]Propanoic Acid] |
| 75 nM | 585 nM | CC(C)CC1=C(COc2ccc(CCC(=O)O)c(C(F)(F)F)c2)CCCC1 [Compound 579, 3-[4-[(2-isobutylcyclohexen-1-yl)methoxy]-2-(trifluoromethyl)phenyl]Propanoic Acid] |
| 101 nM | 442 nM | O=C(O)CCc1ccc(OCC2=C(c3ccc(Cl)c(F)c3)CCC2)cc1C(F)(F)F [Compound 284, 3-[4-[[2-(4-chloro-3-fluoro-phenyl)cyclopenten-1-yl]methoxy]-2-(trifluoromethyl)phenyl]Propanoic Acid] |
| 2860 nM | 725 nM | Cc1cc(OCC2=C(c3ccccc3)CCC2C)c(F)cc1CCC(=O)O (stereo not drawn) [Compound 338, 3-[5-fluoro-2-methyl-4-[(5-methyl-2-phenyl-cyclopenten-1-yl)methoxy]phenyl]Propanoic Acid] |
| 2230 nM | 1070 nM | Cc1cc(OCC2=C(c3ccccc3)C(C)CC2)c(F)cc1CCC(=O)O (stereo not drawn) [Compound 323, 3-[5-fluoro-2-methyl-4-[(3-methyl-2-phenyl-cyclopenten-1-yl)methoxy]phenyl]Propanoic Acid] |
| > 5000 nM | 89 nM | COc1ccc(C2=C(COc3ccc(CCC(=O)O)cc3C)CCC2)cn1 [Compound 218, 3-[4-[[2-(6-methoxy-3-pyridyl)cyclopenten-1-yl]methoxy]-3-methyl-phenyl]Propanoic Acid] |
